Measurements reported in article PMC9594048, “Targeting a Multidrug-Resistant Pathogen: First Generation Antagonists of Burkholderia cenocepacia’s BC2L-C Lectin” (ACS Chemical Biology, 2022).
Where two headings read alike, the source gives them in different places.

Experiments:
[1] = target: T1, BC2L-C-Nt (rBC2L-CN2) (Burkholderia cenocepacia, UniProt B4EH86); experiment: Isothermal titration calorimetry (ITC); type: binding; conditions: for Kd: 25 °C
Protocol: All experiments were performed at 25 °C with an ITC200 isothermal titration calorimeter (Microcal-Malvern Panalytical, Orsay, France). The protein rBC2L-CN2 and its ligands were dissolved in a buffer composed of 20 mM Tris HCl pH 7.0 and 100 mM NaCl. The 200 μL sample cell containing rBC2L-CN (concentrations ranging from 200 to 400 μM) was subjected to injections of ligand solution: 20 to 39 injections of 1 μL or 70 injections of 0.5 μL (5 to 50 mM, chosen depending on the ligand) at intervals of 100, 120, or 200 s, while stirring at 850 rpm. Control experiments were performed by repeating the same protocol, but injecting the ligand into buffer solution. The supplied software Origin 7 or MicroCal PEAQ-ITC was used to fit the experimental data to a theoretical titration curve allowing the determination of affinity.
3. Ligand evaluation materials and methods
3.1. Isothermal Titration Calorimetry
All experiments were performed at 25 °C with an ITC200 isothermal titration calorimeter (Microcal - Malvern Panalytical, Orsay, France). The protein rBC2L -CN2 and its ligands were dissolved in a buffer composed of 20 mM Tris HCl pH 7.0 and 100 mM NaCl. The 200 µL sample cell containing rBC2L-CN (concentrations ranging from 200 to 400 µM) was subjected to injections of ligand solution: 20 to 39 injections of 1 µL or 70 injections of 0.5 µL (5 to 50 mM, chosen depending on the ligand) at intervals of 100, 120 or 200s while stirring at 850 rpm. Control experiments were performed by repeating the same protocol, but injecting the ligand into buffer solution. The supplied software Origin 7 or MicroCal PEAQ-ITC was used to fit the experimental data to a t heoretical titration curve allowing the determination of affinity (i.e., association constant, K a), binding enthalpy (∆H), and stoichiometry (n). Values for free energy change (∆G) and entropy contributions (T∆S) […]
1.K-1. For experiments in ligand excess, the stoichiometry was fixed to 1. […]

[2] = target: T1, BC2L-C-Nt (rBC2L-CN2); experiment: Surface plasmon resonance (SPR) affinity on BC2L-C-Nt-coated chip; type: binding; conditions: 25 °C, rBC2L-CN2 immobilized on CM5 chip, multi-cycle affinity; SD from duplicates
Protocol: Experiments were performed on a BIACORE X100 instrument (GE Healthcare) at 25 °C in running buffer 10 mM HEPES pH 7.4, 150 mM NaCl, and 0.05% Tween 20, adjusted to include 8% DMSO when required. rBC2L-CN2 was immobilized onto CM5 chips (BIACORE) following the amine coupling procedure detailed in the Supporting Information. The analytes were dissolved in the running buffer at increasing concentrations (range: 3.28–3500 μM) and subjected to multi-cycle affinity studies (300 s association, 300 s dissociation, flow rate 5 μL/min). Injections of compounds at increasing concentrations onto the immobilized rBC2L-CN2 were followed by regeneration of the surface: 10 mM fucose in running buffer and then running buffer at 5 μL/min (100 and 150 s, respectively) after each analyte association/dissociation. For the higher concentrations, regeneration was secured by performing one or more runs replacing analyte by running buffer. Duplicates were performed for all ligands. Binding affinity (KD) was measured after subtracting the channel 1 reference (no immobilized protein) and subtracting a blank injection (running buffer—zero analyte concentration). Data evaluation and curve fitting were performed using the provided BIACORE X100 evaluation software (version 2.0). The protein-coated chip was stored at 4 °C in running buffer and was functional up to 8 weeks after fabrication, as proven by experimentation. […]
3.2. Surface plasmon Resonance
Experiments were performed on a BIACORE X100 instrument (GE Healthcare) at 25 °C in running buffer 10 mM HEPES pH 7.4, 150 mM NaCl and 0.05% Tween 20, adjusted to include 8% DMSO when indicated. rBC2L-CN2 was immobilized onto CM5 chips (BIACORE) following the amine […]
• Activation of the chip by three injections of a NHS/EDC mixture at 10 μL/min for 540s, until a minimum of 300 RU was observed on both channels.
• Injection of rBC2L-CN2 (0.5 mg/mL) dissolved in 10 mM sodium acetate pH 4.5 onto channel 2 (contact time of 540s, flow rate of 10 μL/min), until a minimum of 7000 RU was […]
• Inactivation of both channels by injecting a 1M ethanolamine (pH 8.5) solution at 5 μL/min for 1080s, achieving over 400 and 7000 RU for channel 1 and 2, respectively.
The analytes were dissolved in the running buffer at increasing concentrations (range: 3.28 − 3500 μM) and subjected to multi-cycle affinity studies (300s association, 300s dissociation, flow rate 5 μL/min). Injections of compounds at increasing concentrations onto the immobilized rBC2L-CN2 were followed by regeneration of the surface: 10 mM fucose in running buffer, then running buffer at 5 μL/min (100s and 150s, respectively) after each analyte association/dissociation. For the higher concentrations, regeneration was secured by performing one or more runs replacing analyte by running buffer. Duplicates were performed for all ligands. Binding affinity (KD) was measured after subtracting the channel 1 reference (no immobilized protein) and subtracting of a blank injection (running buffer - zero analyte concentration). Data evaluation and curve fitting was performed using the provided BIACORE X100 evaluation software (version 2.0). […]

[3] = Solubility (qualitative remark); type: physicochemical; conditions: prevented affinity evaluation by ITC
[4] = target: T1, BC2L-C-Nt (rBC2L-CN2); experiment: biochemical; type: binding; conditions: for Tonset / Tm1 / Tm2: protein 14.3 μM, ligand 143 μM; for Tonset: SD from duplicates; for Tm1: first thermal event, protein alone 82.2 °C; for Tm2: main thermal event, protein alone 84.5 °C; for ΔTm2: shift of main thermal event vs protein alone
Protocol: Experiments were performed on a Microcal PEAQ-DSC instrument (Malvern Panalytical, Orsay, France). A buffer composed of 20 mM Tris HCl pH 7.0 and 100 mM NaCl was used to dilute the protein rBC2L-CN2 and its ligands to concentrations 14.3 and 143 μM, respectively. Samples of 250 μL were loaded, while the reference cell was filled with the matching buffer (aforementioned buffer, ligands when relevant). […] The data were acquired on “Low” feedback mode. The supplied software MicroCal PEAQ-DSC Software 1.53 was used to fit the experimental data. […] The profile obtained was fitted with a “NonTwoState” model, accounting for two thermal events. Each experiment was performed in duplicates, and their averages were calculated by the software.
3. […]
3.3. Differential Scanning Calorimetry
Experiments were performed on a Microcal PEAQ-DSC instrument (Malvern Panalytical, Orsay, […]

[5] = 20 mM Tris HCl pH 7.0, 100 mM NaCl, SD from duplicates

T1 sequence (B4EH86 entry or part of it): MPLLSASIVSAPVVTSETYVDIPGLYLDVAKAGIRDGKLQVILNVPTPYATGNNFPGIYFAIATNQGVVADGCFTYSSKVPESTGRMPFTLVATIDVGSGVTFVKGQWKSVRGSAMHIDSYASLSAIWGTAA

In the case of `C[C@@H]1O[C@H](NC(=O)c2ccc3[nH]ccc3c2)[C@@H](O)[C@H](O)[C@@H]1O` [8e], the “activity compared with methyl-fucoside 13 (ITC)” value ([1]; ITC KD compared with […]) is reported as “better activity than methyl-fucoside 13” and the Kd [2] is reported as 1.42 ± 0.02 mM.
With `C[C@@H]1O[C@H](C#CC(O)c2ccc3ncccc3c2)[C@@H](O)[C@H](O)[C@@H]1O` (stereo partly shown) [22f] the Kd [1] was 0.49 mM and the Kd [2] was 0.301 ± 0.001 mM.
In the case of `C[C@@H]1O[C@H](NC(=O)c2ccc(-c3cccc(N)c3)o2)[C@@H](O)[C@H](O)[C@@H]1O` [8c], the solubility [3] is reported as “very low and poor” and the Kd [2] is reported as 2.36 ± 0.97 mM.
Work on `CNCc1ccc(C#C[C@H]2O[C@@H](C)[C@@H](O)[C@@H](O)[C@@H]2O)cc1` [22b] yielded a Kd [1, 5] of 1.24 ± 0.07 mM and a Kd [2] of 7.85 ± 3.39 mM.
For `CNCc1ccc(C(=O)N[C@H]2O[C@@H](C)[C@@H](O)[C@@H](O)[C@@H]2O)cc1` [8b], the Kd [1, 5] was 3.66 ± 0.21 mM and the Kd [2] was 1.57 ± 0.06 mM.
Work on `C[C@@H]1O[C@H](C#Cc2ccc(CNC(=N)N)cc2)[C@@H](O)[C@H](O)[C@@H]1O` [22g] yielded a Kd [1, 5] of 0.91 ± 0.03 mM and a Kd [2] of 1.3 ± 0.6 mM.
With `CNCc1ccc(-c2cn([C@H]3O[C@@H](C)[C@@H](O)[C@@H](O)[C@@H]3O)nn2)cc1` [12b] the Kd [1, 5] was 6.25 ± 0.72 mM and the Kd [2] was 2.45 ± 0.02 mM.
For `C[C@@H]1O[C@H](NC(=O)c2ccc(C(C)(C)CN)cc2)[C@@H](O)[C@H](O)[C@@H]1O` [8a], the Kd [1, 5] was 2.55 ± 1 mM and the Kd [2] was 0.94 ± 0.01 mM.
`CNCc1ccc(/C=C/[C@H]2O[C@@H](C)[C@@H](O)[C@@H](O)[C@@H]2O)cc1` [28b] gave a Kd [1, 5] of 3.37 ± 0.4 mM and a Kd [2] of 1.02 ± 0.02 mM.
`C[C@@H]1O[C@H](C#Cc2ccc(C(C)(C)CN)cc2)[C@@H](O)[C@H](O)[C@@H]1O` [22a] gave a Tonset [4] of 73.29 ± 1.54 °C, a Tm1 [4] of 82.43 ± 0.02 °C and a Tm2 [4] of 84.71 ± 0.01 °C. For the same compound, the ΔTm at 143 µM ([4]; read-out: ΔTm1) was 0.21 °C, the ΔTm at 143 µM ([4]; read-out: ΔTm2) was 0.17 °C and the Kd [1] was 0.281 mM. The Kd [1, 5] was 0.28 ± 0.01 mM, the “affinity increase from αMeFuc (ITC)” value ([1]; relative to […]) was ~10 fold and the Kd [2] was 1.33 ± 0.15 mM.
Work on `CC(=O)N[C@H]1C(O)O[C@H](CO)[C@@H](O)[C@@H]1O[C@@H]1O[C@H](CO)[C@H](O)[C@H](O)[C@H]1O[C@@H]1O[C@@H](C)[C@@H](O)[C@@H](O)[C@@H]1O` (stereo partly shown) [H-type 1 trisaccharide, Fucα(1–2)Galβ(1–3)GlcNAc] yielded a Tonset [4] of 74.09 ± 0.26 °C, a Tm1 [4] of 82.65 ± 0.01 °C and a Tm2 [4] of 84.92 ± 0.01 °C. The ΔTm1 ([4]; shift of first thermal event vs protein alone) was 0.44 °C, the ΔTm2 [4] was “+0.38 °C” and the ΔTm2 ([4]; listed as H-type 1) was 0.38 ± 0.01 °C.
For `C[C@@H]1O[C@H](NC(=O)c2ccc3cc[nH]c3c2)[C@@H](O)[C@H](O)[C@@H]1O` [8d], the Kd [1, 5] was 3.49 ± 1.3 mM and the Kd [2] was 3.42 ± 0.22 mM.
Compound `C[C@@H]1O[C@H](n2cc(-c3ccc(C(C)(C)CN)cc3)nn2)[C@@H](O)[C@H](O)[C@@H]1O` [12a] has a Kd [1, 5] of 2.49 ± 0.06 mM and a Kd [2] of 1.19 ± 0.05 mM.
